pEC50, pKd: −log10 of the molar value.
Experiments:
KOPr [1] = target: T1, KOPr (Homo sapiens, UniProt P41145); assay: [35S]GTPγS binding, CHO membranes, standard U69593; type: biochemical; conditions: for Kd: Ke/nM KOPr, antagonist Ke versus U69593, single agonist concentration; for fold more potent as KOPr antagonist than 17-methyl equivalent: ratio of Ke: 5k vs 5b, 5i vs 5e
MOPr [2] = target: T2, MOPr (Homo sapiens, UniProt P35372); assay: [35S]GTPγS binding, CHO membranes, standard DAMGO; type: biochemical; conditions: Ke/nM MOPr, antagonist Ke versus DAMGO, single agonist concentration
DOPr [3] = target: T3, DOPr (Homo sapiens, UniProt P41143); assay: [35S]GTPγS binding, CHO membranes, standard DPDPE; type: biochemical; conditions: for Kd: Ke/nM DOPr, antagonist Ke versus DPDPE, single agonist concentration
DOPr [4] = conditions: cited from earlier work
MOPr [5] = conditions: read-out: Ke MOPr antagonist activity in GPI assay; GPI isolated tissue; cited from earlier work
MOPr [6] = assay: Guinea pig ileum; conditions: 7b Ke in GPI (ref 8) vs 5k Ke in [35S]GTPγS assay
DOPr [7] = target: T3, DOPr; type: binding
KOPr [8] = target: T1, KOPr; type: binding
MOPr [9] = conditions: read-out: EC50 MOPr partial agonist activity in [35S]GTPγS assay; cited from earlier work
MOPr [10] = target: T2, MOPr; type: binding

T1 sequence (P41145 whole entry): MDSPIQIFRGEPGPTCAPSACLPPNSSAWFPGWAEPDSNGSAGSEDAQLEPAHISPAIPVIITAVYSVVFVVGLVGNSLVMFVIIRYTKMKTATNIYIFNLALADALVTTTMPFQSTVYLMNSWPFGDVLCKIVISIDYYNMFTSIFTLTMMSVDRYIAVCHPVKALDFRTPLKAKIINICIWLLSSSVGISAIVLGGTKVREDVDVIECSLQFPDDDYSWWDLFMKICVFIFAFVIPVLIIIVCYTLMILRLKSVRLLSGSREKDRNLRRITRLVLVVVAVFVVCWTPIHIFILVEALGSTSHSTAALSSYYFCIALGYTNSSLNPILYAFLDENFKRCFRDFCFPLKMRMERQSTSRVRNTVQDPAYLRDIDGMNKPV
T3 sequence (P41143 whole entry): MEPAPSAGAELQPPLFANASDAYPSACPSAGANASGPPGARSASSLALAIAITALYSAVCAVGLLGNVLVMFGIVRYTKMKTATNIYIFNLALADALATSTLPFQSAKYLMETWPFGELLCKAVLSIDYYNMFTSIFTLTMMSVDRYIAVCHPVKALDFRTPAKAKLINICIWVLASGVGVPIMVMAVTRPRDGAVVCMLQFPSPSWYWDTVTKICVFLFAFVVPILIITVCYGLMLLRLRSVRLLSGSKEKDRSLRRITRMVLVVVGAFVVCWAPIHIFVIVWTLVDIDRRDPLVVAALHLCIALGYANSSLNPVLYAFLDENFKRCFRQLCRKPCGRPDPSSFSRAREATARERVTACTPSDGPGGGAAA
T2 sequence (P35372 whole entry): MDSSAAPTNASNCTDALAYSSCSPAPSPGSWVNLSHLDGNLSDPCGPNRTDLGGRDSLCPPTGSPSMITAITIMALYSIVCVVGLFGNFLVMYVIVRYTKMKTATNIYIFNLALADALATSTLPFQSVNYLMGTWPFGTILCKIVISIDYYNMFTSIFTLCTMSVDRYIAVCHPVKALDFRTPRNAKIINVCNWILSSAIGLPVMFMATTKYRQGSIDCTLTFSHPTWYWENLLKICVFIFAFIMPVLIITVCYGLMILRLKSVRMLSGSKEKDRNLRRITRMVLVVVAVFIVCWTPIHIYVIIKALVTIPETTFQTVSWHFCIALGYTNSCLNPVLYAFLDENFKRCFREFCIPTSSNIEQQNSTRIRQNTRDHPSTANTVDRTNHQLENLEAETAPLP

Structure (SMILES)	Kd (KOPr [1]) [nM]	Kd (MOPr [2]) [nM]	Kd (DOPr [3]) [nM]	further results
CN1C(=O)[C@H](CCO)CC2=C1[C@@H]1Oc3c(O)ccc4c3[C@@]13CCN(C)[C@H](C4)[C@]3(O)C2 [5c]	321			
CN1C(=O)[C@@H](CCO)CC2=C1[C@@H]1Oc3c(O)ccc4c3[C@@]13CCN(C)[C@H](C4)[C@]3(O)C2 [5d]	2140			
CN1CC[C@]23c4c5ccc(O)c4O[C@H]2C2=C(C[C@@H](CCO)C(=O)N2Cc2ccccc2)C[C@@]3(O)[C@H]1C5 [5e]	29.3	32.9		
C[C@H]1CC2=C([C@@H]3Oc4c(O)ccc5c4[C@@]34CCN(CC3CC3)[C@H](C5)[C@]4(O)C2)N(Cc2ccccc2)C1=O [5h]	2.03	0.6	0.57	
CN1C(=O)CCC2=C1[C@@H]1Oc3c(O)ccc4c3[C@@]13CCN(C)[C@H](C4)[C@]3(O)C2 [5a]	392			
Cc1[nH]c2c(c1Cc1ccccc1)C[C@@]1(O)[C@H]3Cc4ccc(O)c5c4[C@@]1(CCN3CC1CC1)[C@H]2O5 [6b]				DOPr antagonist selectivity over both MOPr and KOPr (DOPr [4]): 50 fold
CCOC(=O)Cc1c2c(n(Cc3ccccc3)c1O)[C@@H]1Oc3c(O)ccc4c3[C@@]13CCN(CC1CC1)[C@H](C4)[C@]3(O)C2 [4b]	4.3	6.61	6.79	
O=C1CCC2=C([C@@H]3Oc4c(O)ccc5c4[C@@]34CCN(CC3CC3)[C@H](C5)[C@]4(O)C2)N1Cc1ccccc1 [5k, 1′-Benzyl-17-cyclopropylmethyl-6,7-didehydro-4,5-epoxy-4′,5′-dihydro-3,14-dihydroxy-pyrido[2,3: 6,7-]morphinan-6(1H)-one]	0.13	0.2		fold more potent as KOPr antagonist than 17-methyl equivalent (KOPr [1]): over 160 fold
Oc1ccc2c3c1O[C@H]1c4ncccc4C[C@@]4(O)[C@@H](C2)N(CC2CC2)CC[C@]314 [7b]				pKd (MOPr [5]): 6.79; fold lower MOPr antagonist potency than 5k (MOPr [6]): 800 fold
CN1CC[C@]23c4c5ccc(O)c4O[C@H]2c2ncccc2C[C@@]3(O)[C@H]1C5 [7a, reference compound]				fold lower DOPr affinity than 5b (DOPr [7]): 20 fold; fold lower KOPr affinity than 5b (KOPr [8]): 130 fold; pEC50 (MOPr [9]): 5.52; fold lower MOPr affinity than 5b (MOPr [10]): 27 fold
CN1CC[C@]23c4c5ccc(O)c4O[C@H]2C2=C(C[C@H](CCO)C(=O)N2Cc2ccccc2)C[C@@]3(O)[C@H]1C5 [5f]	16.8			
CN1CC[C@]23c4c5ccc(O)c4O[C@H]2C2=C(CCC(=O)N2Cc2ccccc2)C[C@@]3(O)[C@H]1C5 [5b]	21.3			fold lower binding affinity at DOPr than at MOPr (DOPr [7]; ratio of Ki, DOPr vs MOPr): around 3 fold; fold lower binding affinity at KOPr than at MOPr (KOPr [8]; ratio of Ki, KOPr vs MOPr): ~6 fold; %stim DOPr (DOPr [3]; % stimulation relative to the standard DPDPE): 94%
O=C1[C@H](CCO)CC2=C([C@@H]3Oc4c(O)ccc5c4[C@@]34CCN(CC3CC3)[C@H](C5)[C@]4(O)C2)N1Cc1ccccc1 [5i]	0.73	0.35	0.47	fold more potent as KOPr antagonist than 17-methyl equivalent (KOPr [1]): 40 fold
O=C1[C@@H](CCO)CC2=C([C@@H]3Oc4c(O)ccc5c4[C@@]34CCN(CC3CC3)[C@H](C5)[C@]4(O)C2)N1Cc1ccccc1 [5j]	2.22	1.62	0.93	
O=C1CCC2=C([C@@H]3Oc4c(O)ccc5c4[C@@]34CCN(CC3CC3)[C@H](C5)[C@]4(O)C2)N1CC1CCCCC1 [5n, 1′-Cyclohexylmethyl-17-cyclopropylmethyl-6,7-didehydro-4,5-epoxy-4′,5′-dihydro-3,14-dihydroxy-pyrido[2,3: 6,7-]morphinan-6(1H)-one]	0.48	0.27		
C[C@@H]1CC2=C([C@@H]3Oc4c(O)ccc5c4[C@@]34CCN(CC3CC3)[C@H](C5)[C@]4(O)C2)N(Cc2ccccc2)C1=O [5g]	0.23	0.5	0.23	

Source: article PMC4112151 (Bioorganic & medicinal chemistry, 2014)
